# Like-named read-outs stand apart in the source and are kept apart here.
# What was measured:
# alkaline phosphatase = alkaline phosphatase (Homo sapiens, UniProt P05187); assay: Conversion of mutual prodrugs to salmeterol and AISTM drug after exposure to alkaline phosphatase in vitro (LCMS); format: in vitro ADME; conditions: for Calculated Compound Final Conc. (μM) at 270 mins.: 270 mins in ALP; for half-life at 0.1 mg/mL / half-life at 111.7 μM: human, alkaline phosphatase (Sigma P-3895) in reaction buffer, read-out: Half Life t1/2; for Example 37 in ALP (Peak Area Ratio) Normalized / Example 37 in ALP (Peak Area Ratio) mean / Example 29 in ALP (Peak Area Ratio) Normalized / Example 29 in ALP (Peak Area Ratio) mean: 37 degrees; for half-life at 111.7 μM: Table 1b
# Procedure: Conversion of the Mutual AISTM-β-Agonist Prodrugs (Described in Examples 29 and 37) to Salmeterol and Respective AISTM Drugs after Exposure to Alkaline Phosphatase In Vitro
# Reaction Buffer (pH 7.4, 5 mM tris/1 mM Mg^2+/1 mM Zn^2+) […]
# Dissolved ˜2 mg of the mutual prodrug of invention in 10 ml 1:1 acetonitrile/water.
# Dissolved ˜2 mg of each MRA and β-agonist in 20 ml 1:1 acetonitrile/water
# The stock solutions were mixed in microcentrifuge tubes, as depicted in the following Table:
# (§1) The heat block was set at the 37 degrees. Then 0.5 mL of alkaline phosphatase solution was added into 4 preheated Eppendorf tubes. The aliquot 0.5 of prodrug and drug standards were added into preheated Eppendorf tubes. Immediately after vortexing the aliquots of 25 μL of the all reaction solutions were made into the respective 96-well plate positions. The internal standard (75 μl of 500 ng/mL Glyburide) was added into all samples after each aliquots. That procedure was repeated at every 15 minute intervals for ˜4-5 hours.
# The 96-well plates were then analyzed using the LCMS technique.
# (§2) In the calculation of half life, we assumed that the disappearance of the mutual prodrug of this invention followed first order kinetics. Therefore,
# (§3) The area peak ratio of prodrug vs IS was plotted against time first; the peak area ratios of later time points were normalized with the peak area ratio of initial time point (ASAP). The natural log of the normalized ratio was then plotted against time to generate a linear curve. The slope of this linear curve k was used for the following calculation.
# Drug concentrations are calculated by normalizing the peak area ration to (t 0). Thus, calculated drug concentrations at any time point=normalized peak area ratio [t (0) mean/t mean]multiplied initial drug concentration. Data (normalized peak area ratio) for the calculations of drug concentrations are listed in Table 1a (ALP activation) and 1b (half-life in ALP and buffer only) for the compound prepared in Example 29, salmeterol, and the ARRY-797 compound (Munson et al., 2004) and Table 2a (ALP activation) and 2b (half-life in ALP and buffer only)) for the compound prepared in Example 37, salmeterol, and the PDE4 inhibitor, CDP-840 (Alexander et al., 2002).
# [1] = Half life of mutual prodrug in reaction buffer only (pH 7.4 tris/Mg2+/Zn2+); format: physicochemical; conditions: reaction buffer without alkaline phosphatase, reaction buffer pH 7.4, no ALP
# Procedure: Reaction Buffer (pH 7.4, 5 mM tris/1 mM Mg^2+/1 mM Zn^2+)
# as §1, §2, §3
# Drug concentrations are calculated by normalizing the peak area ration to (t 0). Thus, calculated drug concentrations at any time point=normalized peak area ratio [t (0) mean/t mean]multiplied initial drug concentration. […]
# Chain of alkaline phosphatase (P05187 23-506): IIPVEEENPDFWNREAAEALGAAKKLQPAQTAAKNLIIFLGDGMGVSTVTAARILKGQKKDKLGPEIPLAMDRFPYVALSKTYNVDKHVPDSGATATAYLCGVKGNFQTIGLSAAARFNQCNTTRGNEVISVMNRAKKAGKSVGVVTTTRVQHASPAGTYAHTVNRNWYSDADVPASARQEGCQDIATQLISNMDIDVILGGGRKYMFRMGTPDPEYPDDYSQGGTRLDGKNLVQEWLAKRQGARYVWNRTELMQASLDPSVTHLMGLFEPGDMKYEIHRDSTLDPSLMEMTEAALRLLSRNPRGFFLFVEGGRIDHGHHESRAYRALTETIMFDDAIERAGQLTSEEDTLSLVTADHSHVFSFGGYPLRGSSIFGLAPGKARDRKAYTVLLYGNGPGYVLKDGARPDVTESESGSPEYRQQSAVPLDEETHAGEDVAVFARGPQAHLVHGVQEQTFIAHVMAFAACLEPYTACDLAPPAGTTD
structure (smiles),measurement,setting,value
"COc1ccc([C@H](Cc2cc[n+](Cc3ccc(C(O)CNCCCCCCOCCCCc4ccccc4)cc3OP(=O)(O)O)cc2)c2ccccc2)cc1OC1CCCC1 (stereo in doubt) [Example 37, 4-[2-(3-Cyclopentyloxy-4-methoxy-phenyl)-2-phenyl-ethyl]-1-(4-{1-hydroxy-2-[6-(4-phenyl-butoxy)-hexylamino]-ethyl}-2-phosphonooxy-benzyl)-pyridinium]",Half Life t1/2,"alkaline phosphatase; ALP Enzyme Conc. 0.224 mg/mL, Table 2b, first order kinetics assumed",0.925 h
same,Calculated Compound Final Conc. (μM) at 270 mins.,alkaline phosphatase; added initial conc. 117.4 μM in reaction mixture,1.9 µM
same,half-life at 0.1 mg/mL,"alkaline phosphatase; pH 7.4, ALP Enzyme Conc. 0.224 mg/mL, Table 2b, first order kinetics assumed",0.775 h
same,half-life at 0.1 mg/mL,"alkaline phosphatase; pH 7.4, ALP Enzyme Conc. 0.443 mg/mL, Table 2b, first order kinetics assumed",0.41 h
same,Example 37 in ALP (Peak Area Ratio) Normalized,alkaline phosphatase; time 0 mins,1.0000
same,Example 37 in ALP (Peak Area Ratio) mean,alkaline phosphatase; time 0 mins,0.8115
same,Example 37 in ALP (Peak Area Ratio) Normalized,alkaline phosphatase; time 15.0 mins,0.5126
same,Example 37 in ALP (Peak Area Ratio) mean,alkaline phosphatase; time 15.0 mins,0.4160
same,Example 37 in ALP (Peak Area Ratio) Normalized,alkaline phosphatase; time 30.0 mins,0.2705
same,Example 37 in ALP (Peak Area Ratio) mean,alkaline phosphatase; time 30.0 mins,0.2195
same,Example 37 in ALP (Peak Area Ratio) Normalized,alkaline phosphatase; time 45.0 mins,0.1719
same,Example 37 in ALP (Peak Area Ratio) mean,alkaline phosphatase; time 45.0 mins,0.1395
same,Example 37 in ALP (Peak Area Ratio) Normalized,alkaline phosphatase; time 60.0 mins,0.1280
same,Example 37 in ALP (Peak Area Ratio) mean,alkaline phosphatase; time 60.0 mins,0.1039
same,Example 37 in ALP (Peak Area Ratio) Normalized,alkaline phosphatase; time 75.0 mins,0.0974
same,Example 37 in ALP (Peak Area Ratio) mean,alkaline phosphatase; time 75.0 mins,0.0791
same,Example 37 in ALP (Peak Area Ratio) Normalized,alkaline phosphatase; time 90.0 mins,0.0752
same,Example 37 in ALP (Peak Area Ratio) mean,alkaline phosphatase; time 90.0 mins,0.0610
same,Example 37 in ALP (Peak Area Ratio) Normalized,alkaline phosphatase; time 105 mins,0.0630
same,Example 37 in ALP (Peak Area Ratio) mean,alkaline phosphatase; time 105 mins,0.0511
same,Example 37 in ALP (Peak Area Ratio) Normalized,alkaline phosphatase; time 120 mins,0.0478
same,Example 37 in ALP (Peak Area Ratio) mean,alkaline phosphatase; time 120 mins,0.0388
same,Example 37 in ALP (Peak Area Ratio) Normalized,alkaline phosphatase; time 135 mins,0.0439
same,Example 37 in ALP (Peak Area Ratio) mean,alkaline phosphatase; time 135 mins,0.0357
same,Example 37 in ALP (Peak Area Ratio) Normalized,alkaline phosphatase; time 150 mins,0.0322
same,Example 37 in ALP (Peak Area Ratio) mean,alkaline phosphatase; time 150 mins,0.0262
same,Example 37 in ALP (Peak Area Ratio) Normalized,alkaline phosphatase; time 165 mins,0.0296
same,Example 37 in ALP (Peak Area Ratio) mean,alkaline phosphatase; time 165 mins,0.0240
same,Example 37 in ALP (Peak Area Ratio) Normalized,alkaline phosphatase; time 180 mins,0.0275
same,Example 37 in ALP (Peak Area Ratio) mean,alkaline phosphatase; time 180 mins,0.0224
same,Example 37 in ALP (Peak Area Ratio) Normalized,alkaline phosphatase; time 210 mins,0.0227
same,Example 37 in ALP (Peak Area Ratio) mean,alkaline phosphatase; time 210 mins,0.0184
same,Example 37 in ALP (Peak Area Ratio) Normalized,alkaline phosphatase; time 240 mins,0.0198
same,Example 37 in ALP (Peak Area Ratio) mean,alkaline phosphatase; time 240 mins,0.0161
same,Example 37 in ALP (Peak Area Ratio) Normalized,alkaline phosphatase; time 270 mins,0.0161
same,Example 37 in ALP (Peak Area Ratio) mean,alkaline phosphatase; time 270 mins,0.0131
same,half-life,[1]; Table 2b,6.42 h
"CC(C)Cn1ncc2cc(Oc3ccc(F)cc3F)c(C(=O)NCC[N+](C)(C)Cc3cc(C(O)CNCCCCCCOCCCCc4ccccc4)ccc3OP(=O)(O)O)cc21 (stereo not shown) [Example 29, (2-{[5-(2,4-Difluoro-phenoxy)-1-isobutyl-1H-indazole-6-carbonyl]-amino}-ethyl)-(5-{-hydroxy-2-[6-(4-phenyl-butoxy)-hexylamino]-ethyl}-2-phosphonooxy-benzyl)-dimethyl-ammonium]",Calculated Compound Final Conc. (μM) at 270 mins.,alkaline phosphatase; added initial conc. 111.7 μM in reaction mixture,57.5 µM
same,half-life at 111.7 μM,"alkaline phosphatase; pH 7.4, ALP Enzyme Conc. 0.224 mg/mL, first order kinetics assumed",5.78 h
same,half-life at 111.7 μM,"alkaline phosphatase; pH 7.4, ALP Enzyme Conc. 0.443 mg/mL, first order kinetics assumed",2.36 h
same,Example 29 in ALP (Peak Area Ratio) Normalized,alkaline phosphatase; time 0 mins,1.0000
same,Example 29 in ALP (Peak Area Ratio) mean,alkaline phosphatase; time 0 mins,2.3900
same,Example 29 in ALP (Peak Area Ratio) Normalized,alkaline phosphatase; time 15.0 mins,0.9289
same,Example 29 in ALP (Peak Area Ratio) mean,alkaline phosphatase; time 15.0 mins,2.2200
same,Example 29 in ALP (Peak Area Ratio) Normalized,alkaline phosphatase; time 30.0 mins,0.9247
same,Example 29 in ALP (Peak Area Ratio) mean,alkaline phosphatase; time 30.0 mins,2.2100
same,Example 29 in ALP (Peak Area Ratio) Normalized,alkaline phosphatase; time 45.0 mins,0.8368
same,Example 29 in ALP (Peak Area Ratio) mean,alkaline phosphatase; time 45.0 mins,2.0000
same,Example 29 in ALP (Peak Area Ratio) Normalized,alkaline phosphatase; time 60.0 mins,0.7552
same,Example 29 in ALP (Peak Area Ratio) mean,alkaline phosphatase; time 60.0 mins,1.8050
same,Example 29 in ALP (Peak Area Ratio) Normalized,alkaline phosphatase; time 75.0 mins,0.7050
same,Example 29 in ALP (Peak Area Ratio) mean,alkaline phosphatase; time 75.0 mins,1.6850
same,Example 29 in ALP (Peak Area Ratio) Normalized,alkaline phosphatase; time 90.0 mins,0.6402
same,Example 29 in ALP (Peak Area Ratio) mean,alkaline phosphatase; time 90.0 mins,1.5300
same,Example 29 in ALP (Peak Area Ratio) Normalized,alkaline phosphatase; time 105 mins,0.6109
same,Example 29 in ALP (Peak Area Ratio) mean,alkaline phosphatase; time 105 mins,1.4600
same,Example 29 in ALP (Peak Area Ratio) Normalized,alkaline phosphatase; time 120 mins,0.6402
same,Example 29 in ALP (Peak Area Ratio) mean,alkaline phosphatase; time 120 mins,1.5300
same,Example 29 in ALP (Peak Area Ratio) Normalized,alkaline phosphatase; time 135 mins,0.6192
same,Example 29 in ALP (Peak Area Ratio) mean,alkaline phosphatase; time 135 mins,1.4800
same,Example 29 in ALP (Peak Area Ratio) Normalized,alkaline phosphatase; time 150 mins,0.5941
same,Example 29 in ALP (Peak Area Ratio) mean,alkaline phosphatase; time 150 mins,1.4200
same,Example 29 in ALP (Peak Area Ratio) Normalized,alkaline phosphatase; time 165 mins,0.5879
same,Example 29 in ALP (Peak Area Ratio) mean,alkaline phosphatase; time 165 mins,1.4050
same,Example 29 in ALP (Peak Area Ratio) Normalized,alkaline phosphatase; time 180 mins,0.5439
same,Example 29 in ALP (Peak Area Ratio) mean,alkaline phosphatase; time 180 mins,1.3000
same,Example 29 in ALP (Peak Area Ratio) Normalized,alkaline phosphatase; time 210 mins,0.5146
same,Example 29 in ALP (Peak Area Ratio) mean,alkaline phosphatase; time 210 mins,1.2300
same,Example 29 in ALP (Peak Area Ratio) Normalized,alkaline phosphatase; time 240 mins,0.4916
same,Example 29 in ALP (Peak Area Ratio) mean,alkaline phosphatase; time 240 mins,1.1750
same,Example 29 in ALP (Peak Area Ratio) Normalized,alkaline phosphatase; time 270 mins,0.5146
same,Example 29 in ALP (Peak Area Ratio) mean,alkaline phosphatase; time 270 mins,1.2300
same,half-life,[1]; Table 1b,57.8 h

# From patent publication US20100098641A1, “Monophosphates as Mutual Prodrugs of Anti-Inflammatory Signal Transduction Modulators (AISTM's) and Beta-Agonists for the Treatment of Pulmonary Inflammation and Bronchoconstriction” (priority 2006, published 2010)
